Data: patent US11938121B2, “Treatment of infections and biofilm formation using a cellulose synthase inhibitor” (Purdue Research Foundation, priority 2020, dated 2024)

Tests used:
[1] = biological target: T1, YFP-AtCESA6 cellulose synthase complexes (CSCs) in root epidermal cells (Arabidopsis thaliana, UniProt Q94JQ6); test: Spinning-disk confocal live-cell imaging of CSC trafficking; type: cell-based; conditions: 6 μM
T1 construct: expressed in transfected cells; host or cells: transgenic Arabidopsis thaliana YFP-AtCESA6 seedlings (total protein extract for DARTS; root epidermal cells for imaging)
T1 sequence (O48946 whole entry): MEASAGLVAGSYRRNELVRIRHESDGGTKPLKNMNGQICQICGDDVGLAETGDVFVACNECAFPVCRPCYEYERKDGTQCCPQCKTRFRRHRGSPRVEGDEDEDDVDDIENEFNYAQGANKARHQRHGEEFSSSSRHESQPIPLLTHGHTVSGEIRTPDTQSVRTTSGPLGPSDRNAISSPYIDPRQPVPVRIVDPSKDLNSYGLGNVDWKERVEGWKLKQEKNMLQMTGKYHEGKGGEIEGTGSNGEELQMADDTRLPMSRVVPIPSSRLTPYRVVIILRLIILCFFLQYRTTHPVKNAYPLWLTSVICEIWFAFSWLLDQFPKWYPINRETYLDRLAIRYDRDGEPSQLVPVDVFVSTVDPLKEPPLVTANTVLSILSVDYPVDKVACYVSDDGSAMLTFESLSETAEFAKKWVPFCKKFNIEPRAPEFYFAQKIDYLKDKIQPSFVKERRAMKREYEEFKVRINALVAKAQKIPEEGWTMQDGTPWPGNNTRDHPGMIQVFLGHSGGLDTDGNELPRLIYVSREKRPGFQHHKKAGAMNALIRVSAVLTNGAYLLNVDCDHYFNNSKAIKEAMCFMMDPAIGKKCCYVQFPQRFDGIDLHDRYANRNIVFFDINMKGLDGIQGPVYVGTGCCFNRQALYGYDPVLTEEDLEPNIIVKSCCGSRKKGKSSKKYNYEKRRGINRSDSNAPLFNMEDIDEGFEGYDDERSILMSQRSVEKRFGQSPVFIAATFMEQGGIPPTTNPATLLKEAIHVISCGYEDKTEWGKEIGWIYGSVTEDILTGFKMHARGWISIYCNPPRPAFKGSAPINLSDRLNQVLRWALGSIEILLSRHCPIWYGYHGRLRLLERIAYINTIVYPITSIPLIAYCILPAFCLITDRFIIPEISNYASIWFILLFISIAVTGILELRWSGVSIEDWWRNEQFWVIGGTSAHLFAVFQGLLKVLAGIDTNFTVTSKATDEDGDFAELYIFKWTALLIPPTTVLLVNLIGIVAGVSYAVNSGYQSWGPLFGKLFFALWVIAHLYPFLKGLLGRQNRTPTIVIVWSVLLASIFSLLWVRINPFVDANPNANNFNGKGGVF
T1 sequence (Q941L0 whole entry, further chain): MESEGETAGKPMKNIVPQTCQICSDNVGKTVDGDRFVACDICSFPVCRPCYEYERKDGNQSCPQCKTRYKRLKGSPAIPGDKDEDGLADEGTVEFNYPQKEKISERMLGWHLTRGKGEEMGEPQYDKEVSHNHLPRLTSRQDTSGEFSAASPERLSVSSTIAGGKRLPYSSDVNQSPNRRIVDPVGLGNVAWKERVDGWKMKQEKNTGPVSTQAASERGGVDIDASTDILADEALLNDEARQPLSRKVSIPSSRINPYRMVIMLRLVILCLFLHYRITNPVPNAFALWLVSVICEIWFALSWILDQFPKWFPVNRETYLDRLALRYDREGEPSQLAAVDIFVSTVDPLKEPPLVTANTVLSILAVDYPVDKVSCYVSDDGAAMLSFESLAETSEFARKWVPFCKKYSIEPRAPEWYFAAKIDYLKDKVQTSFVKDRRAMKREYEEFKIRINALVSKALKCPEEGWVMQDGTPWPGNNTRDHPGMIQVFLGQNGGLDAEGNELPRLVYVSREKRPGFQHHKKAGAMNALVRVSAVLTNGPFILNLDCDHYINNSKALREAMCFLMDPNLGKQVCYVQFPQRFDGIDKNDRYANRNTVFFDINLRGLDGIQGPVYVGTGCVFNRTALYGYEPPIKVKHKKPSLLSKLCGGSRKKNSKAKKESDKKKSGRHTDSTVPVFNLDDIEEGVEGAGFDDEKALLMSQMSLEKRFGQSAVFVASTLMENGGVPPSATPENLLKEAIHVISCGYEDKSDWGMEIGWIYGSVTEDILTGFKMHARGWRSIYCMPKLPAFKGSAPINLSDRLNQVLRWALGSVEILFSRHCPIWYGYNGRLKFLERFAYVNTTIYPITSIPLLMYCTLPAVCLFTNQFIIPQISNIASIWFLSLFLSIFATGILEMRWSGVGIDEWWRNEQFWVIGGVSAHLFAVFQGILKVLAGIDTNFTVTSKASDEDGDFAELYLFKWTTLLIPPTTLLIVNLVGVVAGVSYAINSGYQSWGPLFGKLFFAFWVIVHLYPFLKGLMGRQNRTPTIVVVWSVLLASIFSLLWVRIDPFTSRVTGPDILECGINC
T1 sequence (Q94JQ6 whole entry): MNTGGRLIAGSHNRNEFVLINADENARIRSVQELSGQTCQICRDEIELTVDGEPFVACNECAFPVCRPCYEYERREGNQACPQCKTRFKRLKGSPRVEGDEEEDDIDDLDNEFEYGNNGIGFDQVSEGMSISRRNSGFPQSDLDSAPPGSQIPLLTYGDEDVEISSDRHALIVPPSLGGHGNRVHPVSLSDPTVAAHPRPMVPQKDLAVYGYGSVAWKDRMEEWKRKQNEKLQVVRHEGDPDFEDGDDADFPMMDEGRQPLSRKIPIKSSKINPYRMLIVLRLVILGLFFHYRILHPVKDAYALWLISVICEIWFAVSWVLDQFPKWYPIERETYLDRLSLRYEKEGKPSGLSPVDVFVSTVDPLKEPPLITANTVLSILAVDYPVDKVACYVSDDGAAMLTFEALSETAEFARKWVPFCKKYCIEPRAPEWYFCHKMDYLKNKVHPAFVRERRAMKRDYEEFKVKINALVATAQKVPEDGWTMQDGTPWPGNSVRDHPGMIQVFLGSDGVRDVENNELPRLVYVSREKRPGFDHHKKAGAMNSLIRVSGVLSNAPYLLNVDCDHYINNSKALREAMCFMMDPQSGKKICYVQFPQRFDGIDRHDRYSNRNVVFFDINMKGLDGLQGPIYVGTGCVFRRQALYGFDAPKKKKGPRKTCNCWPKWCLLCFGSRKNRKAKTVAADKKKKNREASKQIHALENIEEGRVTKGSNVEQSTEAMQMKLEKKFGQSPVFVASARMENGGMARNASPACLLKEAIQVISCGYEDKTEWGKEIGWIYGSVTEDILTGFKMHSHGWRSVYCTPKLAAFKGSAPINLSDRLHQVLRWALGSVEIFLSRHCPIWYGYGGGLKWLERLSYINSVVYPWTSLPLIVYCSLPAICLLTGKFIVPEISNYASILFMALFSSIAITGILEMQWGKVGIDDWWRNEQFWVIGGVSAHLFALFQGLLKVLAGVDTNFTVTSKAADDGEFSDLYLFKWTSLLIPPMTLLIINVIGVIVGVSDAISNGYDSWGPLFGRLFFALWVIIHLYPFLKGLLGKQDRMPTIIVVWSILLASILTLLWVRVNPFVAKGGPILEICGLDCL
Protocol: For SDCM live cell imaging, seedlings were grown vertically for 5 d, and images were taken from the 2nd or 3rd epidermal cell below the first obvious root hair in the root elongation zone. Two thin strips of double-sided adhesive tape were placed on top of glass slides approximately 2 cm apart. 100 μl of ½-strength MS liquid growth medium containing 0.1% DMSO or 6 μM of ES20-1 was applied to the slide, and seedlings were mounted in the liquid medium. A 22×40 mm cover glass was placed on top of the double-sided tape for imaging. For longer term imaging during CESA velocity analysis, seedlings were mounted on a piece of 1-mm thick 0.6% Phytagel pad affixed to the glass slide to minimize compression and liquid evaporation.
To examine the cellular localization of YFP-AtCESA6 and YFP-AtCESA6; ManI-CFP, SDCM imaging was performed using a CSU-X1-A1 Yokogawa scanning unit mounted on an Olympus IX-83 microscope equipped with a 100×/1.4NA UPlanSApo oil objective (Olympus) and an Andor iXon Ultra 897BV EMCCD camera (Andor Technology). YFP and CFP fluorescence was excited with 515-nm and 445-nm laser lines and emission collected through 542/27-nm and 479/40-nm filters, respectively.
For fluorescence recovery after photobleaching (FRAP) experiments, images were collected using a Zeiss Observer Z.1 microscope, equipped with a Yokogawa CSU-X1 head and a 100×/1.46 NA PlanApo objective (Zeiss). For the PM-localized CESA6 FRAP, photobleaching was performed with a Vector scanner (Intelligent Imaging Innovations) with a 515-nm laser line at 100% power and 1 ms/scan. Timelapse images were collected at the PM with a 10-s interval for 64 frames, with photobleaching in a small region (44.2 μm^2) after the 4th frame, and recovery for total 10 min.
Image analysis was performed using ImageJ. For CESA particle density analyses, regions of interest (ROIs) without abundant Golgi signals were chosen using the Freehand selection tool. CESA particles were detected automatically on 8-bit images using the Find Maxima tool with the same noise threshold for all images. CESA particle density for each ROI was calculated by dividing the number of particles by the ROI area. To analyze CESA particle dynamics, 5-min time-lapse series with 5-s intervals were collected. Average intensity projections were generated to identify the trajectories of CSC particles. Image drift was corrected using the StackReg plugin (Thevenaz et al., 1998). Kymographs were generated, and the velocities of CESA particles were measured as the reciprocal of the slope of individual CESA particles in the kymographs. To quantify cortical vesicles, 1 μm z-series stack with 0.2 μm as the step size and 20-s time-lapses were collected. The focal plane at 0.4 μm below the PM was used for cortical SmaCC analysis. Small particles showing motility in time-lapse series were considered to be SmaCCs. For the FRAP assay of PM-localized CSCs, a smaller area (16 μm^2) within the bleached region was used for analyses. The CSC delivery events during the first 5 min of recovery were manually counted according to the criteria described previously (Li et al., Proc. Natl. Acad Sci. USA, 2016, 113, 11348-11353). […] The CSC delivery rate was calculated by dividing the number of delivery events by the measured area and time.

Arabidopsis Col-0 = test: Crystalline cellulose content measurement of cell wall; type: in vivo, Arabidopsis thaliana
Protocol: Arabidopsis Col-0 seeds were sown on growth medium supplemented with 0.1% DMSO, 1 μM ES20, or different concentrations of ES20 analogs. […] Cellulose extraction and measurement were performed as previously described (Huang et al., 2020).

Komagataeibacter xylinus = test: K. xylinus cellulose production in liquid culture; type: cell-based; conditions: 20 μM
Text: We next grew K. xylinus cells in growth medium supplemented with DMSO, ES20, or ES20-1 under agitation. […] We also grew K. xylinus in liquid medium supplemented with DMSO, ES20, or ES20-1 under static cultivation conditions. Without agitation, pellicles containing cellulose often form at the air-liquid interface. […] To quantify the effects of ES20 and ES20-1 on cellulose production, we harvested the pellicles from these cultures and isolated cellulose from the pellicles.
Komagataeibacter xylinus (previously named Gluconacetobacter xylinus) ATCC strain 700178 was obtained from ATCC (Manassas, Va., USA) to evaluate cellulose production. HS (Hestrin and Schramm) medium was used for culture; HS liquid medium contains 2.0% glucose (w/v), 0.5% yeast extract (w/v), 0.5% peptone (w/v), 0.27% Na2HPO4 (w/v), and 0.15% citric acid (w/v), pH 5.0, and HS solid medium was solidified with 1.8% agar (w/v). To prepare the initial inoculation source, a single K. xylinus colony grown on HS solid medium was transferred to HS liquid medium and cultured at 26° C. for 5 days under static conditions. We used cells from the bottom of the liquid culture as the initial inoculation source to avoid biofilm aggregates at the air-liquid interface. To test the effect of ES20 and ES20-1 on the bacteria growth, initial inoculation source was series diluted and 20 μL culture from each diluted solution was dropped on HS solid medium supplemented with DMSO (0.1%) or different concentrations of ES20 and ES20-1 and cultured at 26° C. for 6 days after the dropped culture was completely dry. To test the effects of ES20 and ES20-1 on cellulose production, the prepared inoculation source was inoculated at a dilution ratio of 1:1000 dilution in HS liquid medium supplemented with 0.1% DMSO or 20 μM of ES20 or ES20-1. Static cultivation was carried out in a 26° C. incubator, and agitated cultivation was carried out at 26° C. with shaking at 220 rpm. To isolate cellulose from pellicles, the pellicles were removed from liquid culture, washed several times with deionized water, and soaked in 0.1 M NaOH at 80° C. for 2 h. The pellicles were washed several times with deionized water to completely remove the alkali. The purified cellulose was dried at 60° C. for ˜1 day until a constant dry mass was reached.

[2] = 5 days static cultivation, vs DMSO

Cc1ccccc1C(=O)NNC(=S)NC(=O)c1ccccc1 [ES20-1]
reduction of CSC delivery rate to PM (FRAP) ([1]; 5 min recovery after photobleaching, vs DMSO): ~35% | CSC delivery rate to PM (FRAP) ([1]; 5 min recovery, mean±SE, n=10 cells): 1.41±0.19 particle/μm^2/h | abundance of cortical SmaCCs ([1]; 10 min, mean±SE, n=24 cells): 7.07±0.34 particle/100 μm^2 | abundance (density) of CSCs at the PM ([1]; 10 min, mean±SE, n=32 cells): 0.64±0.03 particle/μm^2 | decrease of abundance of CSCs at the PM ([1]; 10 min, vs DMSO): ~30% | increase of abundance of cortical SmaCCs ([1]; 10 min, vs DMSO): ~30% | velocity of CSC particles at the PM ([1]; 30 min, mean±SE, n=325): 0.152 ± 0.005 ×10⁻⁶ cm/s | decrease of velocity of CSC particles at the PM ([1]; 30 min, vs DMSO): ~35% | integrated fluorescence intensity of Golgi-localized YFP-AtCESA6 ([1]; 1 h, mean±SE, n=55): 8684.50±535.60 | integrated fluorescence intensity of ManI-CFP ([1]; 1 h, same cell): not affected | increase of integrated fluorescence intensity of Golgi-localized YFP-AtCESA6 ([1]; 1 h, vs DMSO): more than 25% | crystalline cellulose content in hypocotyl cell wall (Arabidopsis Col-0; 1 μM, 7-day-old dark-grown seedlings, mean±SD, n=3): 90 ± 6 µg/mg | reduction of crystalline cellulose levels in the hypocotyl (Arabidopsis Col-0; 1 μM, 7-day-old dark-grown seedlings, vs DMSO): ~45% | root cell wall crystalline cellulose content (Arabidopsis Col-0; 7-day-old light-grown seedlings, different concentrations): very potent in inhibiting cellulose biosynthesis in roots | size of cellulose clusters (Komagataeibacter xylinus; 5 days agitated cultivation, vs DMSO): smaller | dry mass of cellulose from pellicles (Komagataeibacter xylinus; 5 days static cultivation, mean±SD, n=9): 346 ± 152 mg/L | decrease of dry mass of cellulose from pellicles (Komagataeibacter xylinus; [2]): ~30% | pellicle thickness (Komagataeibacter xylinus; [2]): pellicles in cultures containing DMSO are thicker
